According to patent US9730940B2, “Purine inhibitors of human phosphatidylinositol 3-kinase delta” (priority 2012, dated 2017):

Molecular target: PI3K-alpha (Homo sapiens (Human), UniProt P42336)
Test: HTRF PI3K biochemical assay, alpha isoform
Details: ratio PI3K-alpha IC50 value/PI3K-delta IC50 value

Sequence of PI3K-alpha (P42336 whole entry, looked up, canonical isoform): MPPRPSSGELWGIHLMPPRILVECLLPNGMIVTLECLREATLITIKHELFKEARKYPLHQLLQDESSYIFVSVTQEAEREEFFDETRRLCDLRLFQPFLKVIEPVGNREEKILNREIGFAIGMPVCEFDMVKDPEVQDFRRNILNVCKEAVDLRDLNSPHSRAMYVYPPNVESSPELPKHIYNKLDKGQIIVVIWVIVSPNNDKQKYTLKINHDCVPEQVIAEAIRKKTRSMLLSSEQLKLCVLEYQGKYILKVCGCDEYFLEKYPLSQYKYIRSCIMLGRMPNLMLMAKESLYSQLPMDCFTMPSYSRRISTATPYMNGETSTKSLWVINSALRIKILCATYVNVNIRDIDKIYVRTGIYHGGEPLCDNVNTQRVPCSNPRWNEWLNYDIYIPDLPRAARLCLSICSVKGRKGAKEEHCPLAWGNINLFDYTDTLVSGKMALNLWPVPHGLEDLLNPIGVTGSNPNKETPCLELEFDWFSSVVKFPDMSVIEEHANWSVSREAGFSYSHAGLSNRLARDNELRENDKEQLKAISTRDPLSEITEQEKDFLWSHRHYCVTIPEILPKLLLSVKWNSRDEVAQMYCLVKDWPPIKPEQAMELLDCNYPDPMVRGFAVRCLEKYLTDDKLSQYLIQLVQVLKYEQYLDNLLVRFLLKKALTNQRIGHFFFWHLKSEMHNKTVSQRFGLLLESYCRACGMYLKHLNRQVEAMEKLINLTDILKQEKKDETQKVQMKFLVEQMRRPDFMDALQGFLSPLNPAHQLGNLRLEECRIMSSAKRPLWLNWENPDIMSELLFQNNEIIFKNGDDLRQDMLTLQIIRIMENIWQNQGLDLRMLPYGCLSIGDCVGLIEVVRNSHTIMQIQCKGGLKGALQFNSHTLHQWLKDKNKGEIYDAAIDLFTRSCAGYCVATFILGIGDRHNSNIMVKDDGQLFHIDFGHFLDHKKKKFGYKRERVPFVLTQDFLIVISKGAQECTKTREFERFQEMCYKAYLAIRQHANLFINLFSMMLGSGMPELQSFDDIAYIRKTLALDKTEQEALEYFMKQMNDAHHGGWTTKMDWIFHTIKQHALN
Sequence of PI3K-alpha (P27986 whole entry partner, looked up, canonical isoform): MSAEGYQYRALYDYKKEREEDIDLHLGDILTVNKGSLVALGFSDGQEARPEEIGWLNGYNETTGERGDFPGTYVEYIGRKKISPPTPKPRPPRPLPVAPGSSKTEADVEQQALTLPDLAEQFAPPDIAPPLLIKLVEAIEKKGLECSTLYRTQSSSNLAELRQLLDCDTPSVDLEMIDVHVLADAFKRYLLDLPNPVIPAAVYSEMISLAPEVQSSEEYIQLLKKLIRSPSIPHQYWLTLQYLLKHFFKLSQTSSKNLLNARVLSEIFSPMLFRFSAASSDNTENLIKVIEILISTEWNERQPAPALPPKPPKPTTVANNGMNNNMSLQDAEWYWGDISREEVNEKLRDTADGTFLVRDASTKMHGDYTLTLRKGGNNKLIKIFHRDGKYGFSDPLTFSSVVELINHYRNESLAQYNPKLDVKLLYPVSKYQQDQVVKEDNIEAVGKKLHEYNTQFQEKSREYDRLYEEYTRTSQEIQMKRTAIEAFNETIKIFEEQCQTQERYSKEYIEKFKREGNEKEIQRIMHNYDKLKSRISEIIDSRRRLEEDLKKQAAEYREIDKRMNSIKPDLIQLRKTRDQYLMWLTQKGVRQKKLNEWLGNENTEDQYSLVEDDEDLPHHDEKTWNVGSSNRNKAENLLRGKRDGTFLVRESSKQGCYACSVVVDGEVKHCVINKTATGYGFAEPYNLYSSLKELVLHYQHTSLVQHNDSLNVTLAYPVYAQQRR

Q: Which “Relative Selectivity versus PI3Kalpha” value does the source give for `CCn1c(-c2ccc(OC(F)F)nc2)nc2c(O[C@H]3CCN(C(=O)C4CC4)C3)ncnc21` [Compound 2-147, 6-{[(3S)-1-(cyclopropylcarbonyl)pyrrolidin-3-yl]oxy}-8-[6-(difluoromethoxy)pyridin-3-yl]-9-ethyl-9H-purine] here?
A: >10

Q: With `CCC(=O)N1CC[C@H](Oc2ncnc3c2nc(-c2ccc4cn[nH]c4c2)n3C)C1` [Compound 3-1, (S)-1-(3-((8-(1H-indazol-6-yl)-9-methyl-9H-purin-6-yl)oxy)pyrrolidin-1-yl)propan-1-one] as the compound, how does the “Relative Selectivity versus PI3Kalpha” value read?
A: >10

Q: How did the “Relative Selectivity versus PI3Kalpha” value turn out when `CCC(=O)N1CC[C@H](Oc2ncnc3c2nc(-c2ccc(C(F)(F)F)nc2)n3C)C1` [Compound 3-2, (S)-1-(3-((9-methyl-8-(6-(trifluoromethyl)pyridin-3-yl)-9H-purin-6-yl)oxy)pyrrolidin-1-yl)propan-1-one] was run?
A: >10

Q: With `CCC(=O)N1CC[C@H](Oc2ncnc3c2nc(-c2cnc4[nH]ccc4c2)n3C)C1` [Compound 3-3, (S)-1-(3-((9-methyl-8-(1H-pyrrolo[2,3-b]pyridin-5-yl)-9H-purin-6-yl)oxy)pyrrolidin-1-yl)propan-1-one] as the compound, how does the “Relative Selectivity versus PI3Kalpha” value read?
A: >10

Q: With `CCC(=O)N1CC[C@H](Oc2ncnc3c2nc(-c2ccc4cc[nH]c4c2)n3C)C1` [Compound 3-4, (S)-1-(3-((8-(1H-indol-6-yl)-9-methyl-9H-purin-6-yl)oxy)pyrrolidin-1-yl)propan-1-one] as the compound, how does the “Relative Selectivity versus PI3Kalpha” value read?
A: >10

Q: `CCC(=O)N1CC[C@H](Oc2ncnc3c2nc(-c2ccc4[nH]ncc4c2)n3C)C1` [Compound 3-5, (S)-1-(3-((8-(1H-indazol-5-yl)-9-methyl-9H-purin-6-yl)oxy)pyrrolidin-1-yl)propan-1-one] was tested. Which “Relative Selectivity versus PI3Kalpha” value did it give?
A: >10

Q: Which “Relative Selectivity versus PI3Kalpha” value does the source give for `CCC(=O)N1CC[C@H](Oc2ncnc3c2nc(-c2cnc(OC)c(C(F)(F)F)c2)n3C)C1` [Compound 3-6, (S)-1-(3-((8-(6-methoxy-5-(trifluoromethyl)pyridin-3-yl)-9-methyl-9H-purin-6-yl)oxy)pyrrolidin-1-yl)propan-1-one] here?
A: >10

Q: With `CCC(=O)N1CC[C@H](Oc2ncnc3c2nc(-c2ccc4[nH]ccc4c2)n3C)C1` [Compound 3-7, (S)-1-(3-((8-(1H-indol-5-yl)-9-methyl-9H-purin-6-yl)oxy)pyrrolidin-1-yl)propan-1-one] as the compound, how does the “Relative Selectivity versus PI3Kalpha” value read?
A: >10

Q: `CCC(=O)N1CC[C@H](Oc2ncnc3c2nc(-c2ccc(C)nc2)n3C)C1` [Compound 3-8, (S)-1-(3-((9-methyl-8-(6-methylpyridin-3-yl)-9H-purin-6-yl)oxy)pyrrolidin-1-yl)propan-1-one] was tested. Which “Relative Selectivity versus PI3Kalpha” value did it give?
A: >10

Q: How did the “Relative Selectivity versus PI3Kalpha” value turn out when `CCC(=O)N1CC[C@H](Oc2ncnc3c2nc(-c2cc(O)cc(F)c2)n3C)C1` [Compound 3-9, 3-fluoro-5-(9-methyl-6-{[(3S)-1-propanoylpyrrolidin-3-yl]oxy}-9H-purin-8-yl)phenol] was run?
A: >10

Q: `CCC(=O)N1CC[C@H](Oc2ncnc3c2nc(-c2cnc4[nH]nc(C)c4c2)n3C)C1` [Compound 3-10, 9-methyl-8-(3-methyl-1H-pyrazolo[3,4-b]pyridin-5-yl)-6-{[(3S)-1-propanoylpyrrolidin-3-yl]oxy}-9H-purine] was tested. Which “Relative Selectivity versus PI3Kalpha” value did it give?
A: >10

Q: For `CCC(=O)N1CC[C@H](Oc2ncnc3c2nc(-c2cnn(-c4ccccc4)c2)n3C)C1` [Compound 3-11, 9-methyl-8-(1-phenyl-1H-pyrazol-4-yl)-6-{[(3S)-1-propanoylpyrrolidin-3-yl]oxy}-9H-purine], which “Relative Selectivity versus PI3Kalpha” value is on record?
A: >10

Q: With `CCC(=O)N1CC[C@H](Oc2ncnc3c2nc(-c2cnn(-c4ccccc4)c2C)n3C)C1` [Compound 3-12, 9-methyl-8-(5-methyl-1-phenyl-1H-pyrazol-4-yl)-6-{[(3S)-1-propanoylpyrrolidin-3-yl]oxy}-9H-purine] as the compound, how does the “Relative Selectivity versus PI3Kalpha” value read?
A: >10

Q: For `CCC(=O)N1CC[C@H](Oc2ncnc3[nH]c(-c4cnn(CC)c4C)nc23)C1` [Compound 3-13, 8-(1-ethyl-5-methyl-1H-pyrazol-4-yl)-6-{[(3S)-1-propanoylpyrrolidin-3-yl]oxy}-9H-purine], which “Relative Selectivity versus PI3Kalpha” value is on record?
A: >10

Q: `CCC(=O)N1CC[C@H](Oc2ncnc3c2nc(-c2cc(F)cc(NS(C)(=O)=O)c2)n3C)C1` [Compound 3-14, N-[3-fluoro-5-(9-methyl-6-{[(3S)-1-propanoylpyrrolidin-3-yl]oxy}-9H-purin-8-yl)phenyl]methanesulfonamide] was tested. Which “Relative Selectivity versus PI3Kalpha” value did it give?
A: >10

Q: Which “Relative Selectivity versus PI3Kalpha” value does the source give for `CCC(=O)N1CC[C@H](Oc2ncnc3c2nc(-c2cncc(N)c2)n3C)C1` [Compound 3-15, 5-(9-methyl-5-{[(3S)-1-propanoylpyrrolidin-3-yl]oxy}-9H-purin-8-yl)pyridin-3-amine] here?
A: >10

Q: `CCC(=O)N1CC[C@H](Oc2ncnc3c2nc(-c2cnn(C(C)(C)C)c2)n3C)C1` [Compound 3-16, 8-(1-tert-butyl-1H-pyrazol-4-yl)-9-methyl-6-{[(3S)-1-propanoylpyrrolidin-3-yl]oxy}-9H-purine] was tested. Which “Relative Selectivity versus PI3Kalpha” value did it give?
A: >10

Q: With `CCC(=O)N1CC[C@H](Oc2ncnc3c2nc(-c2ccc(Cl)nc2)n3C)C1` [Compound 3-17, 8-(6-chloropyridin-3-yl)-9-methyl-6-{[(3S)-1-propanoylpyrrolidin-3-yl]oxy}-9H-purine] as the compound, how does the “Relative Selectivity versus PI3Kalpha” value read?
A: >10

Q: For `CCCn1c(-c2cnn(CC)c2C)nc2c(O[C@H]3CCN(C(=O)CC)C3)ncnc21` [Compound 3-18, 8-(1-ethyl-5-methyl-1H-pyrazol-4-yl)-6-{[(3S)-1-propanoylpyrrolidin-3-yl]oxy}-9-propyl-9H-purine], which “Relative Selectivity versus PI3Kalpha” value is on record?
A: >10

Q: How did the “Relative Selectivity versus PI3Kalpha” value turn out when `CCCn1c(-c2cnc(C)nc2)nc2c(O[C@H]3CCN(C(=O)CC)C3)ncnc21` [Compound 3-19, 8-(2-methylpyrimidin-5-yl)-6-{[(3S)-1-propanoylpyrrolidin-3-yl]oxy}-9-propyl-9H-purine] was run?
A: >10

Q: `CCC(=O)N1CC[C@H](Oc2ncnc3c2nc(-c2cnc(C)nc2)n3C)C1` [Compound 3-20, 9-methyl-8-(2-methylpyrimidin-5-yl)-6-{[(3S)-1-propanoylpyrrolidin-3-yl]oxy}-9H-purine] was tested. Which “Relative Selectivity versus PI3Kalpha” value did it give?
A: >10

Q: How did the “Relative Selectivity versus PI3Kalpha” value turn out when `CCC(=O)N1CC[C@H](Oc2ncnc3c2nc(-c2cnn(CC)c2C)n3CC(F)F)C1` [Compound 3-21, 9-(2,2-difluoroethyl)-8-(1-ethyl-5-methyl-1H-pyrazol-4-yl)-6-{[(3S)-1-propanoylpyrrolidin-3-yl]oxy}-9H-purine] was run?
A: >10

Q: How did the “Relative Selectivity versus PI3Kalpha” value turn out when `CCC(=O)N1CC[C@H](Oc2ncnc3c2nc(-c2cnn4c2CCC4)n3C)C1` [Compound 3-22, 8-(5,6-dihydro-4H-pyrrolo[1,2-b]pyrazol-3-yl)-9-methyl-6-{[(3S)-1-propanoylpyrrolidin-3-yl]oxy}-9H-purine] was run?
A: >10

Q: With `CCn1c(-c2cnn(-c3ccccc3)c2C)nc2c(O[C@H]3CCN(C(=O)C4CC4)C3)ncnc21` [Compound 3-23, 6-{[(3S)-1-(cyclopropylcarbonyl)pyrrolidin-3-yl]oxy}-9-ethyl-8-(5-methyl-1-phenyl-1H-pyrazol-4-yl)-9H-purine] as the compound, how does the “Relative Selectivity versus PI3Kalpha” value read?
A: >10

Q: With `CCn1c(-c2ccc(OC)c(F)c2)nc2c(O[C@H]3CCN(C(=O)C4CC4)C3)ncnc21` [Compound 3-24, 6-{[(3S)-1-(cyclopropylcarbonyl)pyrrolidin-3-yl]oxy}-9-ethyl-8-(3-fluoro-4-methoxyphenyl)-9H-purine] as the compound, how does the “Relative Selectivity versus PI3Kalpha” value read?
A: >10

Q: With `CCn1c(-c2cnc3[nH]ccc3c2)nc2c(O[C@H]3CCN(C(=O)C4CC4)C3)ncnc21` [Compound 3-25, 6-{[(3S)-1-(cyclopropylcarbonyl)pyrrolidin-3-yl]oxy}-9-ethyl-8-(1H-pyrrolo[2,3-b]pyridin-5-yl)-9H-purine] as the compound, how does the “Relative Selectivity versus PI3Kalpha” value read?
A: >10

Q: For `CCn1c(-c2cnc(OC)c(C(F)(F)F)c2)nc2c(O[C@H]3CCN(C(=O)C4CC4)C3)ncnc21` [Compound 3-26, 5-{[(3S)-1-(cyclopropylcarbonyl)pyrrolidin-3-yl]oxy}-9-ethyl-8-[6-methoxy-5-(trifluoromethyl)pyridin-3-yl]-9H-purine], which “Relative Selectivity versus PI3Kalpha” value is on record?
A: >10

Q: How did the “Relative Selectivity versus PI3Kalpha” value turn out when `CCn1c(-c2cnc(OC)nc2)nc2c(O[C@H]3CCN(C(=O)C4CC4)C3)ncnc21` [Compound 3-27, 6-{[(3S)-1-(cyclopropylcarbonyl)pyrrolidin-3-yl]oxy}-9-ethyl-8-(2-methoxypyrimidin-5-yl)-9H-purine] was run?
A: >10

Q: `CCn1c(-c2cnc(OC)c(Cl)c2)nc2c(O[C@H]3CCN(C(=O)C4CC4)C3)ncnc21` [Compound 3-28, 8-(5-chloro-6-methoxypyridin-3-yl)-6-{[(3S)-1-(cyclopropylcarbonyl)pyrrolidin-3-yl]oxy}-9-ethyl-9H-purine] was tested. Which “Relative Selectivity versus PI3Kalpha” value did it give?
A: >10

Q: For `CCn1c(-c2cnc(C)nc2C)nc2c(O[C@H]3CCN(C(=O)C4CC4)C3)ncnc21` [Compound 3-29, 6-{[(3S)-1-(cyclopropylcarbonyl)pyrrolidin-3-yl]oxy}-8-(2,4-dimethylpyrimidin-5-yl)-9-ethyl-9H-purine], which “Relative Selectivity versus PI3Kalpha” value is on record?
A: >10

Q: For `CCn1c(-c2cnc(C)c(F)c2)nc2c(O[C@H]3CCN(C(=O)C4CC4)C3)ncnc21` [Compound 3-30, 6-{[(3S)-1-(cyclopropylcarbonyl)pyrrolidin-3-yl]oxy}-9-ethyl-8-(5-fluoro-6-methylpyridin-3-yl)-9H-purine], which “Relative Selectivity versus PI3Kalpha” value is on record?
A: >10

Q: For `CCC(=O)N1CC[C@H](Oc2ncnc3c2nc(I)n3C)C1` [Compound 3-31, 8-iodo-9-methyl-6-{[(3S)-1-propanoylpyrrolidin-3-yl]oxy}-9H-purine], which “Relative Selectivity versus PI3Kalpha” value is on record?
A: >10

Q: Which “Relative Selectivity versus PI3Kalpha” value does the source give for `CCC(=O)N1CC[C@H](Oc2ncnc3c2nc(-c2ccc(OC)c(F)c2)n3C)C1` [Compound 3-32, 8-(3-fluoro-4-methoxyphenyl)-9-methyl-5-{[(3S)-1-propanoylpyrrolidin-3-yl]oxy}-9H-purine] here?
A: >10

Q: Which “Relative Selectivity versus PI3Kalpha” value does the source give for `CCC(=O)N1CC[C@H](Oc2ncnc3c2nc(-c2ccc(OC)nc2)n3C)C1` [Compound 3-33, 8-(6-methoxypyridin-3-yl)-9-methyl-6-{[(3S)-1-propanoylpyrrolidin-3-yl]oxy}-9H-purine] here?
A: >10

Q: Which “Relative Selectivity versus PI3Kalpha” value does the source give for `CCC(=O)N1CC[C@H](Oc2ncnc3c2nc(-c2cnc(OC)c(F)c2)n3C)C1` [Compound 3-34, 8-(5-fluoro-6-methoxypyridin-3-yl)-9-methyl-6-{[(3S)-1-propanoylpyrrolidin-3-yl]oxy}-9H-purine] here?
A: >10
